Test [1] has as its system OleT. Briefly: Decarboxylation of FAs C22 to C4 employing the FDH-CamAB-OleT redox-cascade. Type of test: biochemical. Conditions: for Conversion / α-Olefin / Selectivity n-Alkanone / Selectivity α-OH / Selectivity α-Olefin / Selectivity β-OH: 10 mM substrate. The procedure:
Enzymatic reactions (1 mL scale) were quenched by addition of 100 μL 5 N Extraction of substrate and products was performed with 500 μL EtOAc containing 0.1% 1-decanol as internal standard. The organic phase was dried over anhydrous Na2SO4. Derivatization of carboxylic acids (fatty acids and hydroxy acids) to the corresponding methyl esters was achieved by mixing the organic phase with MeOH (2.5:1.5 v/v) followed by supplementation of 5 to 15 μL of 2 M TMSCHN2 (trimethylsilyldiazomethane in diethyl ether). The mixture was incubated for 30 min, 25° C. and 750 rpm before injection into GC-FID or GC-MS, Extraction and derivatization of products and substrates from conversion of short chain FAs ([…]) was performed using the same protocol but all steps were performed on ice to prevent undesired loss of volatile products.
Products from FA substrates with chain lengths ranging from C22 to C10 were separated on a HP5 column (Programm) and detected by GC-FID or GC-MS. Extracted products from conversion of nonanoic acid (I-octene as product) were separated on a DB1702 column (Programm) and detected by GC-FID. Authentic standards of substrates and terminal olefins were treated as described above and were used as references for identification and preparation of calibration curves. Detection of volatile short chain terminal olefins (1-butene/1-propene [ongoing] to 1-heptene) was accomplished by manual injection from vial headspaces into GC-MS, in order to prevent loss of products, the vials containing the reaction mixtures were sealed with a PTFE septum. After conversion the closed vial was heated for 10 min at 80° C., together with a 10 ml syringe (TYPE). From the headspace 2 to 9 μl volumes were injected splitless into a GC-MS chromatograph and analytes were separated on a HP5 column (Programm). Calibration curves for 1-pentene, 1-hexene and 1-heptene were prepared in the same way at 4° C. and using 5% DMF as cosolvent.
The substrate scope of OleT was further investigated by varying the FA chain length from C3 to C22. […] For the first time, short EAs could be decarboxylated to the corresponding olefins, covering the whole spectrum from C11 down to C4. […] Due to the high volatility of short chain olefins, product work up was done at 4° C. […] (2.53 mM product from 5 mM lauric acid). Head-space analysis by GC-MS from reactions with short chain FAs (C8-C5) confirmed the formation of the respective α-olefins, allowing the first biotechnological access to 1-heptene, 1-hexene and 1-pentene and 1-butene with OleT.
Conversion of heptanoic acid was carried out as described in Example 4 using the OleTCamAB-FDH reaction cascade.
Calibration curves for 1-hexene were prepared accordingly ranging from 0.05 to 2 mM. Due to a strong overlap of […] with the peak areas of CO2 and EtOH (FIG. 1, peaks a, b and c) the ion extraction mode of the GC-MS to generate reliable calibration curves was used. Neither CO2 nor EtOH interfered with the product peak area. This can be seen comparing FIGS. 1 and 5 which allow reliable and linear quantification of 1-hexene (FIG. 6) using manual headspace GC-MS injection.
Manual headspace injection into GC-MS was successfully performed for all substrates with chain lengths of C11 to C6. Conversion of 10 mM heptanoic acid allowed reliable formation of up to 1.3 mM 1-hexene without further optimization of the reaction conditions.

Test [2] relates to OleT. Briefly: Decarboxylation of stearic and palmitic acid by OleT using O2/CamAB or H2O2 as oxidant. Type of test: biochemical. The settings on record: 1 μM OleT, 1 mM substrate.
Setting [3] is: 200 μM NADPH + O2, CamAB, 60 min.
Where [4] appears, read: 1 mM H2O2, 150 min, no CamAB, strong precipitation observed.
Where [5] appears, read: 1 mM NADPH + O2, CamAB, 150 min.

The structures appear in SMILES notation.

Take `CCCCCCCC(=O)O` [C8, caprylic acid/octanoic acid]: in test [1] (4 °C, 72 h), the Conversion is listed as 1.4% and the α-Olefin stood at 141 µM. Besides, in test [1] (25 °C, 24 h), the Conversion was 3.6% and the α-Olefin was found to be 364 µM.

In test [1] (4 °C, 72 h), `CCCCCC(=O)O` [C6, caproic acid/hexanoic acid] had a Conversion of 7.7% and a α-Olefin of 772 µM. In test [1] (25 °C, 24 h), this compound had a Conversion of 12% and a α-Olefin of 1170 µM.

`CCCCCCC(=O)O` [C7, heptanoic acid]: in test [1] (10 mM heptanoic acid, manual headspace GC-MS), the “formation of 1-hexene” value was “up to 1.3 mM”. In test [1] (4 °C, 72 h), this compound registered a Conversion of 9.5% and a α-Olefin of 946 µM. In test [1] (25 °C, 24 h), this compound registered a Conversion of 13% and a α-Olefin of 1298 µM.

Regarding `CCCCCCCCCCCCCCCC(=O)O` [Palmitic Acid, palmitic acid], in test [1] (4 °C, 72 h), the Conversion was found to be 21%, the “Selectivity n-Alkanone” value is 6 % GC-area, the “Selectivity α-OH” value was <1 % GC-area and the “Selectivity α-Olefin” value came to 80 % GC-area. Moreover, in test [1] (4 °C, 72 h), the “Selectivity β-OH” value is given as 14 % GC-area and the α-Olefin was 2059 µM. Further, in test [1] (25 °C, 24 h), the Conversion turned out to be 11%, the “Selectivity n-Alkanone” value was 8 % GC-area, the “Selectivity α-OH” value was 3 % GC-area and the “Selectivity α-Olefin” value was determined as 72 % GC-area. In test [1] (25 °C, 24 h), the “Selectivity β-OH” value is reported as 23 % GC-area and the α-Olefin stood at 1111 µM. In test [2] (200 μM H2O2, 60 min, no CamAB), the Coupling came to 33%, the TOF is 65 h⁻¹, the TON amounted to 65 and the α-Olefin is 65 µM. Also, in test [2] (200 μM NADH + O2, CamAB, 6 min), the Coupling is listed as 3%, the TOF came out at 60 h⁻¹, the TON is reported as 60 and the α-Olefin worked out at 6 µM. In test [2] (setting [3]), the Coupling is 10%, the TOF came out at 21 h⁻¹, the TON worked out at 21 and the α-Olefin turned out to be 21 µM. Further, in test [2] (setting [4]), the Coupling was determined as 7%, the TOF is 29 h⁻¹, the TON is on record as 29 and the α-Olefin was 73 µM. Besides, in test [2] (1 mM NADH + O2, CamAB, 60 min), the Coupling was 1%, the TOF is 9 h⁻¹, the TON amounted to 9 and the α-Olefin was determined as 9 µM. In test [2] (setting [5]), the Coupling is recorded as 3%, the TOF is 13 h⁻¹, the TON stood at 33 and the α-Olefin is 33 µM.

The values are drawn from patent US9885060B2, “Alkene production” (Evonik Degussa GmbH, priority 2015, dated 2018).
